# What was measured:
# [1] = tested on: Prostaglandin E2 (=PGE2) production by the human skin fibroblasts; test: PGE2 levels in PMA-induced human dermal fibroblasts (anti-inflammatory cell assay); type: cell-based; conditions: primary human foreskin fibroblasts, FIGS. 1 and 2; for concentration dependence of anti-inflammatory effect as measured by a reduction in PGE2: increasing concentrations; for anti-inflammatory effect (PGE2 level versus control+veh+PMA): three concentration levels
# Description: It is emphasized that the anti-inflammatory effects were determined by in vitro tests wherein the Prostaglandin E2 (=PGE2) production by the human skin fibroblasts is measured after being induced by the inflammatory modulus phorbyl myristyl acetate (PMA). A reduction of the levels of PGE2 is indicative of the anti-inflammatory effect.
# Fibroblast cell assay: Primary human foreskin fibroblasts at passage 2 (P2) were seeded into 96-well plates at 35000 cells/well and maintained for 24 hours in an atmosphere of 5% carbon dioxide in Dulbeccos Modified Eagles Medium (DMEM) supplemented with 10% foetal calf serum.
# The lignan-compound (SECO or MAT) was added to fresh cell media (DMEM, supplemented with 10% foetal calf serum) in 100% ethanol (final concentration 1%) in triplicate and incubated for a further 24 hours. Phorbal myristate acetate (PMA) in ethanol/cell media ([…]) was added to the cells treated with the lignan compound (SECO) and the cells incubated for a further 24 hours. PMA represents an external stressor, which induces oxidative stress and inflammatory responses in cells. The fibroblasts/media were then analysed as described below immediately, or, snap frozen in liquid nitrogen and stored at −70° C. for future analysis. The cells were then counted to ensure no effect on cell number.
# Different concentrations of SECO or MAT were used in the above method to study the effect of concentration. A series of control experiments were also carried out according to the above method; Control+veh+PMA (positive control), Control+veh (negative control) and control (standard control).
# Prostaglandin E2 (PGE2) assay volumes of 50 μl culture medium were taken for PGE2 assay from the above samples after gently shaking the culture plate. PGE2 levels in the medium were determined with a Biotrak PGE2 immunoassay kit (Amersham, UK). The assay is based on the competition between unlabelled PGE2 in the sample and a fixed quantity of horseradish peroxidase labelled PGE2 for a limited amount of fixed PGE2 specific antibody. Concentrations of unlabelled sample PGE2 are determined according to a standard curve, which was obtained at the same time.
# [2] = tested on: Procollagen-I and Decorin production by the human dermal fibroblasts; test: Procollagen-I and decorin synthesis in human dermal fibroblasts (anti-ageing cell assay, dot blot); type: cell-based; conditions: primary human foreskin fibroblasts, serum free DMEM, 24 hours, different concentration levels, FIGS. 3 and 4
# Description: It is emphasized that the anti-ageing effects were determined by in vitro tests wherein the Procollagen-I and Decorin production by the human dermal fibroblasts is measured after being induced by the anti-ageing stimulus. An increase in the levels of Procollagen-I is indicative of the anti-ageing effect.
# Preparation of Dermal Fibroblast Conditioned Medium: Primary human foreskin fibroblasts at passage 2 (P2) were seeded into 12-well plates at 40000 cells/well and maintained for 24 hours in an atmosphere of 5% carbon dioxide and 4% oxygen in Dulbeccos Modified Eagles Medium (DMEM) supplemented with 10% foetal calf serum. After this time the cells were washed with serum free DMEM and then incubated in fresh serum free DMEM for a further 60 hours. The fibroblast monolayers were then washed again with serum free DMEM.
# The test reagent (MAT and SECO at different concentration levels) and vehicle control (1% ethanol final concentration) were added to the cells in triplicate in a final volume of 0.4 ml/well fresh serum free DMEM and incubated for a further 24 hours. This fibroblast conditioned medium was either analysed immediately, or, snap frozen in liquid nitrogen and stored at −70° C. for future analysis. The cells were then counted and data from the dot-blot analysis subsequently standardised to cell number. […]
Compound,concentration dependence of anti-inflammatory effect as measured by a reduction in PGE2 [1],anti-inflammatory effect (PGE2 level versus control+veh+PMA) [1],anti-ageing effects (procollagen-I and decorin synthesis relative to vehicle treated control of 100 arbitrary units) [2]
"COc1cc(C[C@H]2COC(=O)[C@@H]2Cc2ccc(O)c(OC)c2)ccc1O [MAT, matairesinol]",produced increasing anti-inflammatory effects,effective in producing an anti-inflammatory effect in human cells,showed increased anti-ageing effects in human cells compared to a control sample
"COc1cc(C[C@@H](CO)[C@H](CO)Cc2ccc(O)c(OC)c2)ccc1O [SECO, secoisolariciresinol]",produced increasing anti-inflammatory effects,effective in producing an anti-inflammatory effect in human cells,showed increased anti-ageing effects in human cells compared to a control sample
